Laboratory results from US20130225424A1, “METHODS FOR DETERMINING RESPONSIVENESS TO A DRUG BASED UPON DETERMINATION OF RAS MUTATION AND/OR RAS AMPLIFICATION” (Targeted Molecular Diagnostics, LLC, priority 2010, published 2013).

Assays:
[1] = tested on: K-RAS mutant (A549, NCI-H460 & NCI-H23) NSCLC cells; assay: Cyquant Direct proliferation assay, K-RAS mutant NSCLC cells; assay type: cell-based; conditions: 0-10 μM, 72 hours
Protocol: (§1) Additionally, a variety of NSCLC cell lines that were K-RAS mutant (A549, NCI-H460 & NCI-H23), K-RAS mutant/amplified (NCI-H727 & NCI-H2009) and K-RAS wild-type (Calu-3, NCI-H650 & NC-H661) NSCLC cells were plated in 96 well plates treated and treated 24 hours later with multiple concentrations of Methotrexate (0-10 μM). After an additional 72 hours cells were assayed for proliferation using the Invitrogen Cyquant Direct™ proliferation assay. IC50 (inhibitory concentration that kills 50% of cells) was determined using graphpad software. Cells were treated in triplicate and cell numbers were calculated as percent untreated control.

[2] = tested on: K-RAS mutant/amplified (NCI-H727 & NCI-H2009) NSCLC cells; assay: Cyquant Direct proliferation assay, K-RAS mutant/amplified NSCLC cells; assay type: cell-based; conditions: 0-10 μM, 72 hours
Protocol: as §1

[3] = tested on: K-RAS wild-type (Calu-3, NCI-H650 & NC-H661) NSCLC cells; assay: Cyquant Direct proliferation assay, K-RAS wild-type NSCLC cells; assay type: cell-based; conditions: K-RAS wild-type cells Calu-3, NCI-H650 & NC-H661; 0-10 μM; 72 hours
Protocol: as §1

[4] = tested on: A549 cells; assay: RT-PCR gene/protein expression after Methotrexate treatment, K-RAS mutant cells; assay type: cell-based; conditions: 0.1 μM, 72 hours after treatment, normalized to Beta-2-Macroglobulin
Protocol: (§2) Finally, expression of genes/proteins related to folate metabolism and cell cycle progression were examined in K-RAS mutant and K-RAS wild-type NSCLC cells with Methotrexate treatment and K-RAS overexpression or knockdown. Briefly, A549 cells were treated with Methotrexate at a concentration of 0.1 μM. 72 hours after treatment, total RNA was extracted from treated and untreated cells. RT-PCR was then performed on extracted RNA to determine gene expression of K-RAS, Dihydrofolate Reductase (DHFR), Thymidylate Synthase (TYMS) and E2F1. Gene expression was normalized to […] as an internal control.

[5] = tested on: K-RAS wild-type NSCLC cells; assay: Gene/protein expression after Methotrexate treatment, K-RAS wild-type cells; assay type: cell-based
Protocol: as §2

[6] = tested on: H460 cells; assay: H460 tumors implanted in mice, cleaved caspase-3 staining; assay type: in vivo; conditions: H460 tumors approx. 500 mg; 130 mg/kg Q4Dx3 IP; harvested 10 days after treatment; cleaved caspase-3 stain
From the text: Tumors were then harvested 10 days after treatment, fixed in formalin and stained for cleaved caspase-3. Next, bright-field pictures were taken at 40× (see, FIG. 4).

In the case of `CN(Cc1cnc2nc(N)nc(N)c2n1)c1ccc(C(=O)N[C@@H](CCC(=O)O)C(=O)O)cc1` [Methotrexate], the “sensitivity to Methotrexate (proliferation)” value (from here on “sensitivity to Methotrexate”) [1] is reported as “sensitive”, the “sensitivity to Methotrexate” value [2] is reported as “sensitive” and the “sensitivity to Methotrexate” value [3] is reported as “not sensitive”. The “Expression of DHFR, TS, E2F-1, phosphorylated Rb and mutant K-RAS” value [4] was “decreased”, the “Expression of DHFR, TS, E2F-1, phosphorylated Rb and mutant K-RAS decreased” value [5] was “not” and the “sensitivity (responsiveness) of tumors with K-Ras mutant cells” value [6] was “sensitive”.
